Data as given in patent publication US6831080B2, “Cinnamide derivatives as KCNQ potassium channel modulators” (Bristol-Myers Squibb Company, priority 2001, dated 2004).

How the values were obtained:
[1] = tested on: cortical spreading depression (KCl application), Long-Evans rats; assay: In vivo electrophysiology: number of cortical spreading depressions produced by KCl application; conditions: i.v., 15 min prior to KCl, rat
Excerpt: Male Long-Evans rats (300-450 g) were used in the present studies (Harlan). Rats were anesthetized with urethane anesthesia (1.2 g/kg i.p.) and placed in a stereotaxic frame. Under anesthesia a Silastic catheter was placed in the jugular vein of the rats. The skull was exposed using a scalpel. A small hole (approximately 2 mm by 3 mm) was drilled in to the skull rostral to the lambdoid suture using a microdrill and steel burr. The dura was disrupted and a drop of mineral oil was placed in this hole to prevent dehydration of the underlying cortex. Ultimately this hole was used for the application of crystalline KCl (described below).
Two additional holes were place in the skull unilaterally at 4 and 8 mm rostral to the application hole. Silver wire electrodes were placed in these latter holes and secured to the skull using acrylic cement. A similar silver wire electrode was sutured to the nuchal muscle to serve as a reference electrode. Electrical DC recordings were obtained using a standard differential amplifier (Warner, DP-304) and commercially available data acquisition equipment (Cambridge Electronic Design, 1401 A-D converter and Spike2 software).
All experimental procedures were conducted while the rats were maintained under anesthesia. Rats were injected with test compound, valproic acid or vehicle (100% PEG-400) 15 min prior to the application of crystalline KCl to the application site described above. All injections were given via the jugular vein at a volume of ≦0.5 ml/kg. Only one treatment was tested per animal. The effect of valproic acid was also determined in this study due to the fact that Depakote™ (divalproex sodium) is one of only three drugs currently indicated for the prophylatic treatment of migraine headache. Valproic acid (30-200 mg/kg i.v.) was obtained from Sigma Chemical Company and was dissolved in a vehicle of isotonic saline.
KCl was applied to the application site for 10 min and was then removed using a saline soaked cotton swab. Mineral oil was subsequently reapplied to the application site. Typically, this application produced a long-lasting series of spreading depressions. The number of spreading depressions produced by this KCl application was the primary measure used to access the effectiveness of compounds in this assay.
Data were analyzed using analyses of variance followed by the Dunnett post-hoc test for pairwise comparisons, when appropriate. A difference was considered significant when p≦0.05.
The effect of representative compounds of Formula I on spreading depression is expressed as the percent reduction from vehicle control and is listed in Table 3.

[2] = biological target: cloned mouse KCNQ2 (mKCNQ2) (Mus musculus, UniProt Q9Z351); assay: KCNQ oocyte two-electrode voltage clamp, whole-cell outward current; assay type: cell-based; conditions: single holding potential (−40 μM [sic]), Xenopus oocytes
Procedure: The ability of compounds described in the present invention to open KCNQ channels and increase whole-cell outward (K^+) KCNQ-mediated currents was assessed under voltage-clamp conditions by determining their ability to increase cloned mouse KCNQ2 (mKCNQ2)-mediated, heteromultimeric KCNQ2/3 (mKCNQ2/hKCNQ3)-mediated, and human KCNQ5 (hKCNQ5)-mediated outward currents heterologously expressed in Xenopus oocytes. Oocytes were prepared and injected using standard techniques; each oocyte was injected with approximately 50 nl of mKCNQ2, or hKCNQ5 cRNA. In the case of mKCNQ2/h3 heteromultimeric channel expression, equal amounts (25-50 nL) of each cRNA were co-injected. […] Following injection, oocytes were maintained at 17° in ND96 medium consisting of (in mM): NaCl, 90; KCl, 1.0; CaCl2, 1.0; MgCl2, 1.0; HEPES, 5.0; pH 7.5. Horse serum (5%) and penicillin/streptomycin (5%) were added to the incubation medium. Recording commenced 2-6 days following mRNA injection. Prior to the start of an experiment oocytes were placed in a recording chamber and incubated in Modified Barth's Solution (MBS) consisting of (in mM): NaCl, 88; NaHCO3, 2.4; KCl, 1.0; HEPES, 10; MgSO4, 0.82; Ca(NO3)2, 0.33; CaCl2, 0.41; pH 7.5.
Oocytes were impaled with electrodes (1-2 MΩ) and standard 2-electrode voltage clamp techniques were employed to record whole-cell membrane currents. Recordings were accomplished using standard two-electrode voltage clamp techniques [Stuhmer, W., et al., Methods in Enzymology, Vol. 207: 319-339 (1992)]. Voltage-clamp protocols typically consisted of a series of voltage steps 1-5 sec duration, in +10 mV steps from a holding potential of −90 mV to a maximal potential of +40 mV; records were digitized at 5 kHz and stored on a computer using pClamp data acquisition and analysis software (Axon Instruments). Compounds were evaluated at a single concentration and at a single holding potential (−40 μM); the effect of the selected compounds of Formula I on KCNQ2 current was expressed as the percent of control current and is listed in Table I.

[3] = tested on: stretched attend postures, BalbC/HSD mice; assay: Canopy test for anxiety: stretched attend postures (SAPs); assay type: in vivo, mouse
Excerpt: The purpose of the Canopy test is to investigate the potential of compounds of Formula I as effective treatments for anxiety by examining an integral component of the risk assessment repertoire of defensive behaviors, the stretched attend posture (SAPs). […] This behavior is investigatory, and is considered an important behavioral indicator of anxiety in mice (Grewal et al., 1997). In brief, mice are placed on an elevated circular platform with a covered space in the middle, and an open space surrounding the covered zone. The number of SAPs the animals makes when exploring this environment are measured.
Subjects: Male BalbC/HSD mice (Harlan Sprague Dawley) weighing approximately 20-25 g at the beginning of the experiment, were used. Animals were group housed 4-5 per cage, in standard shoebox cages and maintained on a 12:12 h light-dark cycle (lights on at 0600). All animals were allowed food and water ad libitum throughout the procedure.
Apparatus: The test apparatus is comprised of a black plexiglas circular platform (70 cm diameter) elevated 60 cm above the floor. A clear red plexiglas (translucent) ‘canopy’ (38 cm diameter) is supported 4 cm directly above the platform by a central pillar, effectively dividing the platform into an inner, covered zone (beneath the canopy) and an outer, exposed zone. The apparatus is illuminated by normal room lighting.
Procedure: On test days mice are transported in their home cage to the testing room which is free of noise/distraction and the mice are injected with the compound of choice, prior to testing. For the KCNQ compounds, when administered IV, pretreatment time is 15 minutes. For oral administration, pretreatment time is 1 hour. Following the pretreatment, the animal is placed in the covered zone of the platform, always oriented in the same direction, facing the pillar. For 5 minutes the animals are allowed to freely explore the apparatus. The dependent variable is the number of Stretched Attend Postures, which are scored by an observer blind to treatment condition. Data were analyzed by an overall analysis of variance followed by Dunnett's post hoc tests. An effect was considered significant if p<0.05.
All test compounds are administered in a volume of 10 ml/kg. Vehicle and buspirone (as the positive control) treated mice were run with each experiment, and buspirone was dissolved in the same vehicle as used per each compound. Compounds of Formula I were administered IV, in a vehicle containing 10% PEG400/5% Tween/85% water, warmed on a hot plate.

[4] = tested on: nerve injury-induced tactile allodynia (L5/L6 ligation), Sprague Dawley rats; assay: Chung model of neuropathic pain (Chung surgery and von Frey test); assay type: in vivo, rat; conditions: 100 mg/kg, i.v., von Frey thresholds over 90 min
Procedure: To test agents for activity against peripheral mononeuropathy nerve injury-induced tactile allodynia, male Sprague Dawley rats (wt. 120-160 g) were surgically prepared with unilateral tight ligation of spinal nerves L5 and L6 following the method of Kim and Chung (Kim S. H., Chung J. M. (1992) Pain, September;50(3):355-63). After 3-4 weeks recovery, paw withdrawal to light touch was assessed as described by Chaplan et al. (Chaplan S. R., et al., (1994) J. Neurosci Methods, July;53(1):55-63). In brief, rats are placed in a plastic cage with a wire mesh bottom and allowed to acclimate for 15-30 minutes, until cage exploration and grooming stops. The plantar surface of each hind paw is touched with a series of von Frey hairs with varying stiffness requiring a known force to buckle to determine the nociceptive threshold. Adult male Sprague Dawley rats (avg. wt. 340 g) were tested in the present study. After acclimation, baseline von Frey thresholds were assessed for the injured hindpaw at −15 min. All test compounds were delivered at 0 min by the intravenous (i.v.) route in a volume of 0.5-2 ml/kg. The vehicle for test compounds was 100% PEG-400. For gabapentin the vehicle was deionized H2O. Animals were tested in one of the following 4 treatment conditions: (a) PEG400, (b) gabapentin (Neurontin) 100 mg/kg, (c) test compounds 3 mg/kg and (d) test compounds 10 mg/kg. Following drug administration, von Frey thresholds are measured at 15, 30, 60 and 90 min. Data were analyzed by a 2-way repeated measures analysis of variance followed by Dunnett's test (p<0.05). Experimenters were kept blind to the treatment condition of rats they tested.
Reversal of neuropathic pain behavior may be expressed as a percentage (0-100%) of the maximum possible effect, over and above the vehicle effects. Specifically, drug effects can be described in terms Δ% MPE according to the following equation: [formula]
AUCdrug=area under the curve for von Frey thresholds of the drug-treated group;
AUCvehicle=area under the curve for von Frey thresholds in the vehicle group;
Time=duration of post-drug testing period (90 min); and
Max=maximum von Frey threshold (15 g).
For example, a compound which immediately reversed neuropathic pain behavior to normal levels, such that animals only responded to the highest von Frey filament (15 g), and maintained normal levels through out the post-drug testing period (90 min) would be calculated as Δ% MPE=100%.

Sequence of cloned mouse KCNQ2 (mKCNQ2) (Q9Z351 whole entry): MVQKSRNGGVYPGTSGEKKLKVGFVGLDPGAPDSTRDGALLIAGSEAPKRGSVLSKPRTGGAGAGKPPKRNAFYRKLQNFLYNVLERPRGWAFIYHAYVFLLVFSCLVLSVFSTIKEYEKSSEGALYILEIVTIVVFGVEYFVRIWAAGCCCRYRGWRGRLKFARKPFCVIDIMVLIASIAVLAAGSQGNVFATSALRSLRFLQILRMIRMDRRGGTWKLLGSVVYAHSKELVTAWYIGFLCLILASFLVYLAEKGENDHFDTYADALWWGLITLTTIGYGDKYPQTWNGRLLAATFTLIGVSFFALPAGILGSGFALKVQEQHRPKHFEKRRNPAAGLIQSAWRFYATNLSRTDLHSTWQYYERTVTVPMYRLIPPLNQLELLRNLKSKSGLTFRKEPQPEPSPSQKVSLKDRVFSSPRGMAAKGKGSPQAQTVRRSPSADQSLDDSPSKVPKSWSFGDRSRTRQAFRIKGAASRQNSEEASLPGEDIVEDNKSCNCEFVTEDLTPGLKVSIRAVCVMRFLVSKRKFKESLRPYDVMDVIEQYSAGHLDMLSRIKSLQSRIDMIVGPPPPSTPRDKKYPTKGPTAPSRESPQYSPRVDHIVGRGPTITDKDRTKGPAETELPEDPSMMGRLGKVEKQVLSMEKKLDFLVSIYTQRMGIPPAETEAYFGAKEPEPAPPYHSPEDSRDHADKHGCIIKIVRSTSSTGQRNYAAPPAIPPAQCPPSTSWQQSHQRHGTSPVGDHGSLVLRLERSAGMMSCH

Question: With “(S)-N-[1-(3-(2,6-di- methyl-Morpholin)-4-yl-phen- yl)-ethyl]-3-phen- yl-acrylamide [Example 84]” as the molecule, how does the “% Reduction (number of spreading depressions, from vehicle control)” value ([1]; 1 mg/kg) read?
Answer: 37 (1 mg/kg, i.v.) %

Question: How did the activity at 5 µM [2] turn out when `COC(=O)N1CCc2ccc(C(C)NC(=O)/C=C/c3ccccc3Cl)cc2C1` (racemic) [Example 201, (±)-7-{1-[3-(2-Chloro-phen-yl)-acryloylamino]-eth-yl}-3,4-dihydro-1H-iso-quinoline-2-carboxylic acid methyl ester] was run?
Answer: 157%

Question: How did the activity at 1 µM [2] turn out when `C[C@H](NC(=O)/C=C/c1ccc(OC(F)(F)F)cc1)c1ccc2ccccc2c1` [Example 19, (S)-N-(1-Naphthalen-2-yl-eth-yl)-3-(4-tri-fluoromethoxy-phen-yl)-acrylamide] was run?
Answer: 123%

Question: For `CC(NC(=O)/C=C/c1ccc(F)cc1)c1ccc(F)c(N2CCOCC2)c1` (racemic) [Example 152, (±)-N-[1-(4-Fluoro-3-morpho-lin-4-yl-phenyl)-eth-yl]-3-(4-fluoro-phen-yl)-acrylamide], which “Stretched attend postures, percent of vehicle control” value ([3]; separate experiments with a vehicle control, dose not given) is on record?
Answer: 80 % of vehicle control

Question: With `C[C@H](NC(=O)/C=C/c1ccccc1)c1ccc2ccccc2c1` [Example 2, (S)-N-(1-Naphthalen-2-yl-eth-yl)-3-phenyl-acryla-mide] as the molecule, how does the activity at 5 µM [2] read?
Answer: 160%

Question: For `NCC1(CC(=O)O)CCCCC1` [Gabapentin, gabapentin, reference compound], which “AUC (Δ% MPE)” value [4] is on record?
Answer: 50 (100 mg/kg, i.v.) Δ% MPE

Question: How did the activity at 10 µM [2] turn out when `COC(=O)N1CCc2ccc(C(C)NC(=O)/C=C/c3ccccc3)cc2C1` (racemic) [Example 197, (±)-7-[1-(3-Phenyl-acryloyl-amino)-ethyl]-3,4-di-hydro-1H-iso-quinoline-2-carboxylic acid methyl ester] was run?
Answer: 187%

Question: How did the activity at 10 µM [2] turn out when `COC(=O)N1CCc2ccc(C(C)NC(=O)/C=C/c3ccccc3C)cc2C1` (racemic) [Example 200, (±)-7-[1-(3-o-Tolyl-acryloyl-amino)-ethyl]-3,4-di-hydro-1H-iso-quinoline-2-carboxylic acid methyl ester] was run?
Answer: 126%

Question: With `COc1cccc(/C=C/C(=O)N[C@@H](C)c2ccc3ccccc3c2)c1OC` [Example 6, (S)-3-(2,3-Dimethoxy-phen-yl)-N-(1-naphthalen-2-yleth-yl)-acrylamide] as the molecule, how does the activity at 1 µM [2] read?
Answer: 110%

Question: For `COC(=O)N1CCc2ccc(C(C)NC(=O)/C=C/c3ccc(Cl)cc3)cc2C1` (racemic) [Example 199, (±)-7-{1-[3-(4-Chloro-phen-yl)-acryloylamino]-eth-yl}-3,4-dihydro-1H-iso-quinoline-2-carboxylic acid methyl ester], which activity at 5 µM [2] is on record?
Answer: 138%

Question: Which results are given for `O=C1CC2(CCCC2)CC(=O)N1CCCCN1CCN(c2ncccn2)CC1` [Buspirone, buspirone, reference compound]?
Answer: % Reduction SAPs ([3]; 0.5 mg/kg, i.v., mouse): 71 (0.5 mg/kg. i.v.) %; Reduction in stretched attend postures (in words) ([3]; buspirone 0.5 mg/kg, compounds of Formula I administered IV): significant reduction

Question: Which activity at 10 µM [2] does the source give for `CC(NC(=O)/C=C/c1cccc(F)c1)c1ccc2c(c1)OCCO2` (racemic) [Example 183, (±)-3-(3-Fluorophenyl)-N-[1-(2.3-dihydrobenzo[1,4]dioxin-6-yl)-ethyl]acrylamide] here?
Answer: 135%

Question: With `CC(NC(=O)/C=C/c1ccc(Cl)cc1)c1ccc2c(c1)CCO2` (single isomer, unassigned) [Example 79, 3-(4-Chloro-phenyl)-N-[1-(2,3-di-hydro-benzo-furan-5-yl)-ethyl]-acrylamide] as the molecule, how does the activity at 1 µM [2] read?
Answer: 123%

Question: Which “% Reduction (number of spreading depressions, from vehicle control)” value ([1]; 100 mg/kg) does the source give for `CCCC(CCC)C(=O)O` [Valproic acid, reference compound] here?
Answer: 31 (100 mg/kg, i.v.) %
